Source: patent publication US8110654B2, “T cell epitope peptides of ovarian cancer anti-idiotypic antibody 6B11 and use thereof” (Peking University People;s Hospital, priority 2006, dated 2012)

Key:
CD4 T cells = assay: BrdU cell proliferation assay after magnetic bead sorting of CD4 T cells; type: cell-based, human; conditions: reacting cells sorted for CD4 T cells by magnetic beads
Protocol: All the CDR peptides of anti-idiotype antibody 6B11 (6 peptides) were synthesized artificially. The peptides were screened for Th epitope peptides by cell proliferation assay. Anti-idiotype antibody 6B11-CTLs stimulated for one period were used as reacting cells. DCs loaded with anti-idiotype antibodies and peptides respectively were used as stimulating cells. The reacting cells and the stimulating cells (in the ratio of 10:1) were co-incubated at 37° C. under 5% CO2 for 120 hours and then subject to BrdU ELISA cell proliferation assay. Each well contained 100 μl AIM-V culture medium and 1×10^5 anti-idiotype antibody 6B11-CTLs. Within the last 2 hours during stimulation, 10 μl BrdU labeling solution was added into each well and the fluid in the wells was removed. The cells were dried at 60° C. for 1 hour. 200 μl of FixDenat solution was added into each well. The reaction continued for 30 minutes at 37° C. for fixing DNA in the lymphocytes. Finally, 100 μl BrdU monoclonal antibody was added into each well for 90 minutes. The absorption value at 450 nm was read by an automatic microplate reader after substrate chromogenic reaction for detecting the proliferation of the cells. The group of DCs without loading and the group of phytohaemagglutinin (PHA) were used as negative and positive control respectively. […] Other peptides could not stimulate the proliferation of the reacting cells.
For further analyzing the proliferation of the cells, stimulating cells were blocked by anti-human MHC class II antibodies, for evaluating the effect of Th epitope peptides. Firstly, the optimal application concentration of MHC class II antibodies was determined by experiments to be 1:20 dilution (FIG. 3). […] Other peptides could not trigger cell proliferation, no matter whether MHC class II antibodies were applied or not (FIG. 4). […] The reacting cells were subject to magnetic bead sorting of CD4 T cells.

[1] = tested on: T2 cells loaded with corresponding peptides; assay: 51Cr release assay, peptide-CTLs against T2 cells loaded with peptide; type: cell-based; conditions: for killing of T2 cells loaded with the peptide by peptide-CTLs: CTLs stimulated three periods, 4 hours, effector/target 40:1 to 5:1; for killing of peptide-stimulated T2 cells after MHC class I molecule blocking: anti-human MHC class I antibodies 1:20 dilution
From the text: (§1) The freeze-stored autologous lymphocytes were stimulated by DCs loaded with the peptides and KLH, to obtain peptide-specific CTLs (peptide-CTLs). One period consists of 7 days. On Day 3 of every period, 10 U/ml rh IL-2 was supplemented. Finally, peptide-CTLs were obtained after a 3-period stimulation.
(§2) 6B11-CTLs stimulated for one period were harvested and used as reacting cells in cell proliferation assay, ELISA cytokine assay and IFN-γ ELISPOT assay. 6B11-CTLs and peptide-CTLs stimulated for 3 periods were harvested for use in ^51Cr release assay as effector cells.
(§3) 6B11-CTLs and peptide-CTLs stimulated for three periods were used as effector cells. T2 cells, HOC1A cells and HLE cells loaded with corresponding peptides were used as target cells. Standard ^51Cr release assay was carried out for 4 hours. Target cells (1×10^6 cells) were placed into 0.5 ml RPMI 1640 culture medium (containing 5% fetal bovine serum). 100 μCi Na2^51CrO4 was added. The labeling reaction was allowed to continue overnight at 37° C. Then the cells were washed by cold RPMI 1640 culture medium (containing 5% fetal bovine serum) for three times to terminate the labeling reaction. Target cells (5×10^3 cells) were placed into 100 μl culture medium and then mixed with an equal volume of effector cells in a 96-well plate. The ratio of effector/target was set as 40:1, 20:1, 10:1 and 5:1. Spontaneous release wells contained target cells and the culture medium, while the maximal release wells contained target cells and corresponding culture medium containing 1% Triton X-100. The plates were gently spun using a plate centrifuge for 2 minutes and then co-incubated at 37° C. under 5% CO2 for 4 hours. The plates were gently spun again. 100 μl of supernatant per well was transferred to a counting tube and labeled as appropriate. The cpm values were determined by a γ counter. All assays were performed in duplicate. The ratio of cpm values of the spontaneous release well to the maximal release well was <20%. Killing ratio (%)=[(mean cpm value of the experimental wells−mean cpm value of the spontaneous release wells)/(mean cpm value of the maximal release wells−mean cpm value of the spontaneous release wells)]×100
(§4) For further analyzing the above-mentioned killing effect, the target cells were blocked by applying anti-human MHC class I antibodies, for evaluating the effect of CTL epitope peptides. Firstly, the optimal concentration of MHC class I antibodies was determined to be 1:20 dilution (FIG. 9). […] The killing effect were not disturbed by MHC class I antibodies, i.e., unrelated to the effect of CD8 T cells. […] Its killing effect was disturbed by MHC class I antibodies, which was mainly mediated by CD8 T cells (FIG. 10). […] The former was unrelated to CD8 T cells whereas the latter was mediated by CD8 T cells.

HOC1A cells [2] = assay: 51Cr release assay, specific CTLs against HOC1A cells; type: cell-based; conditions: for killing of HOC1A cells by peptide-CTLs: CTLs stimulated three periods, 4 hours, effector/target 40:1 to 5:1; for killing effect on HOC1A cells, comparison of antigens: T cells stimulated with single peptide 30 μg/ml, or VH CDR3 15 μg/ml plus VL CDR3 15 μg/ml, or 6B11 40 μg/ml; for killing of HOC1A cells after MHC class I molecule blocking: anti-human MHC class I antibodies 1:20 dilution
From the text: as §1, §2, §3, §4
For investigating the specificity and effectiveness of the killing effect of T-cell epitope peptides, the following experiments were carried out. T cells were stimulated by VH CDR3 peptide (30 μg/ml, final concentration), VL CDR 3 peptide (30 μg/ml), VH CDR3 peptide (15 μg/ml) and VL CDR3 peptide (15 μg/ml) as well as anti-idiotype antibody 6B11 (40 μg/ml), resulting in corresponding specific CTLs, which were used as effector cells. HOC1A cells were used as target cells for performing ^51Cr release assay, in order to compare the effectiveness of each antigen in stimulating immune responses. […] The killing effect of the specific CTLs obtained by stimulating with the combination of VH CDR3 peptide and VL CDR3 peptide was even stronger, which indicated a synergic effect between them. The killing effect of them was also stronger than that of 6B11-CTLs (FIG. 12). […] Their effects were more accurate than that of anti-idiotype antibody 6B11.

HOC1A cells [3] = assay: Cytokine ELISA of supernatant of CTLs co-incubated with HOC1A cells; type: cell-based; conditions: CTL:HOC1A 40:1, 48 hours, double-antibody-sandwich ELISA
Protocol: 6B11-CTLs, VH CDR3-CTLs and VL CDR3-CTLs were mixed with target HOC1A cells in the ratio of 40:1 respectively and co-incubated at 37° C. under 5% CO2 for 48 hours. The supernatant was harvested, and the contents of IL-2, IFN-γ and IL-4 determined by double-antibody-sandwich ELISA. […] VH CDR3 peptide- and VL CDR3 peptide-specific CTLs could also secrete high levels of IL-2 and IFN-γ while the secretion of IL-4 was in a low level, which was in a similar trend as that of the immune response induced by anti-idiotype antibody 6B11. This indicated from a different perspective that VH CDR3 peptide and VL CDR3 peptide were involved in the induction of T cell immune response derived from anti-idiotype antibody 6B11 (FIG. 13).

Sequence | proliferation of sorted CD4 T cells (CD4 T cells) | killing of T2 cells loaded with the peptide by peptide-CTLs [1] | killing of peptide-stimulated T2 cells after MHC class I molecule blocking [1] | killing of HOC1A cells by peptide-CTLs (HOC1A cells [2]) | killing effect on HOC1A cells, comparison of antigens (HOC1A cells [2]) | killing of HOC1A cells after MHC class I molecule blocking (HOC1A cells [2]) | IFN-γ secretion by CTLs (HOC1A cells [3]) | IL-2 secretion by CTLs (HOC1A cells [3]) | IL-4 secretion by CTLs (HOC1A cells [3])
IALITTKIAWYFDV (VH CDR3 region peptide) [VH CDR3 peptide] | could trigger the proliferation | could kill | could still kill | could kill | could kill | could still kill | high levels | high levels | low level
SQSTHFPYT (VL CDR3 region peptide) | could not trigger the proliferation | could also kill | significantly inhibited | could also kill | could kill | significantly inhibited | high levels | high levels | low level
